Experimental findings from patent US5084082A, “Soybean plants with dominant selectable trait for herbicide resistance” (priority 1990, dated 1992) are described below.

“Also recorded” adds a separate entry of the source.

For one experiment, the system named is ALS of W4-4. The experiment is described as follows: In vitro ALS activity of leaf tissue in the presence of Compounds 8 and 9. The format is biochemical, soybean. The settings on record: W4-4, 100 ppb. An excerpt:
(§1) At approximately 1 month after transplantation, some of the selections appeared much healthier than others. For example, W4-4, W4-6, W6-1, W6-2, W6-4, W23-10, and W23-11 recovered very well from the seed soak treatment with Compound 8. These plants were suspected of having a higher level of ALS resistance to Compound 8 than did the parental material from which they were derived. The applicant was also interested to see if any of these selections were cross resistant to an imidazolinone herbicide such as Compound 9. To test this hypothesis, leaf tissue of the one-month-old M2 plants was sampled and assayed in vitro for ALS activity in the presence of Compound 8 and Compound 9. The ALS assay procedure was essentially identical to the previously described ALS assay except that the herbicide concentrations tested were 100 ppb Compound 8 and 10 ppm Compound 9. Williams and mutant W20 soybean plants were also assayed as control genotypes for comparison. Williams contains no genes conferring the ALS-based sulfonylurea resistance while W20 is homozygous for a single mutation conferring ALS-based sulfonylurea resistance.
(§2) Acetolactate synthase (ALS) was extracted from leaves of soybean plants growing vegetatively. The leaves were homogenized in 4 volumes of buffer containing 100 mM hepes (pH 7.5), 1 mM sodium pyruvate, 0.5 mM magnesium chloride, 0.5 mM thiamine pyrophosphate, […], 10% glycerol, 5% PVPP, and 0.2% mercaptoethanol. The homogenate was filtered through cheese cloth and centrifuged at 20,000 g for 20 min. ALS was precipitated from the supernatant with ammonium sulfate. The enzyme was collected between 20 and 60% saturation by centrifugation at 20,000 g for 20 min. The pellet was resuspended in buffer containing 100 mM Hepes, 1 mM sodium pyruvate, and 0.5 mM magnesium chloride, and desalted on PD-10 columns (Pharmacia) equilibrated with the same buffer. ALS assays were carried out in a final volume of 0.5 mL at 30° C. The final reaction mixture contained 100 mM Hepes (pH 7.5), 1 mM magnesium chloride, 60 mM sodium pyruvate, 0.4 mM thiaminepyrophosphate, […], and various concentrations of chlorsulfuron. The assays were initiated with the addition of enzyme ([…]) and terminated with the addition of […] of 6N sulfuric acid. The acidified reaction mixture was heated to 60° C. for 15 min, after which 0.5 mL of 0.5% (W/V) creatine and 0.5 mL of 5% (W/V) napthol (freshly prepared in 2.5 N sodium hydroxide) were added. The reaction mixtures were heated for an additional 15 min at 60° C., and the absorbance was read at 525 nm. Data are expressed in terms of % control (minus Compound 1) activity and are the average of two replications. Fisher's least significant difference (LSD) value (at the 95% level of confidence) was calculated for each Compound 1 concentration to determine the significance of genotype mean differences.

The subject of a further experiment is ALS of W4-5. The description is as above. The format is biochemical, soybean. The settings on record: W4-5, 100 ppb.
Text: as §1, §2

A further experiment deals with ALS of W6-1. The experiment is described as above. The class given is biochemical, soybean. The note with it: W6-1, 100 ppb.
Text: as §1, §2

The next experiment concerns ALS of W4-6. The experiment is described as above. The format is biochemical, soybean. The note with it: W4-6, 100 ppb.
Text: as §1, §2

A further experiment has as its system ALS of Williams. The description is as above. The format is biochemical, soybean. The settings on record: 100 ppb.
Text: as §1, §2

The next experiment has as its system ALS of W20. The experiment is described as above. The format is biochemical, soybean. The settings on record: W20, 100 ppb.
Text: as §1, §2

The next experiment deals with ALS of W6-4. Described as above. The class given is biochemical, soybean. The note with it: W6-4, 100 ppb.
Text: as §1, §2

The next experiment relates to ALS of W23-11. Described as above. The settings on record: W23-11, 100 ppb. The class given is biochemical, soybean.
Text: as §1, §2

A further experiment has as its system ALS of W6-2. The experiment is described as above. The settings on record: W6-2, 100 ppb. The class given is biochemical, soybean.
Text: as §1, §2

The subject of another experiment is W20. Kind of experiment: Seed soak test with Compound 8. The settings on record: W20, seeds soaked 16 hours in 2 ppm solution. The format is in vivo, soybean. How it is done: The second screening protocol was carried out as follows: samples of seed from W20 were tested for preemergence tolerance to Compound 8 by soaking seeds in a 2.0 ppm buffered solution of Compound 8 for 16 hours, rinsing, and planting in flats in a greenhouse.
The original W4-4 M2 plant was allowed to self pollinate, mature, and produced a family of M3 seeds. An M3 progeny test was then conducted to determine if the new resistance phenotype was heritable and if the M3 family was true-breeding or segregating for the new resistance trait. The M3 progeny of W4-4 were screened for resistance with the same seed soak technique used to select the original W4-4 M2 plant. Twenty seeds each of the W4-4 M3 family, W20 line, and Williams line were soaked for 16 hours in a solution of 2 ppm of Compound 8. Twenty additional seeds of Williams were soaked for 16 hours in plain tap water as a control treatment. Treated seeds were then washed for two minutes in running water. Each seed was then planted in a separate pot for ease of observation.

A further experiment has as its system Mutant W4-4. The experiment is described as follows: Postemergence herbicide spray test of W4-4 (Table VII-A). The settings on record: two weeks after treatment. The class given is in vivo, soybean. The method in brief:
(§3)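 Soybean lines grown in 10 cm pots to second-trifoliolate stage, then postemergence herbicide-sprayed, two replicates; controls got carrier only (water with 0.25% X77). Percent injury rated at two weeks; means and SE by per-herbicide ANOVA, line differences tested by Fisher's LSD at 95% confidence.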

Another experiment concerns mutant W20. The experiment is described as above. The note with it: two weeks after treatment. The class given is in vivo, soybean. An outline of the steps:
as §3

For the next experiment, the system named is Williams 82. The experiment is described as above. The settings on record: two weeks after treatment. The class given is in vivo, soybean. The method in brief:
as §3

Regarding `COC(=O)c1cccnc1S(=O)(=O)NC(=O)Nc1nc(OC)cc(OC)n1` [Compound 8, Methyl 2-[[[[(4,6-dimethoxy-2-pyrimidinyl)amino]carbonyl]amino]sulfonyl]-3-pyridinecarboxylate], the “uninhibited ALS activity as % of control” value with ALS of W4-4 is given as 37.6 % of control; in the experiment with ALS of W4-5 it was 7.1 % of control; with ALS of W6-1 it was 8.5 % of control; with ALS of W4-6, 4.0 % of control; in the experiment on ALS of Williams it was -0.3 % of control; in the experiment with ALS of W20 it was 10.7 % of control. In addition, the “uninhibited ALS activity as % of control” value is 10.5 % of control in the experiment on ALS of W6-4, 3.8 % of control in the experiment on ALS of W23-11 and 9.7 % of control with ALS of W6-2. Besides, in the experiment on W20, the “seedling development after seed soak” value is “uniformly inhibit growth of W20 beyond the stage of emergence and cotyledon expansion; also recorded: had not started to form true leaves”. Moreover, the mean % injury in the experiment on Mutant W4-4 (W4-4, 4 g/ha postemergence) worked out at 48%; in the experiment with Mutant W4-4 (W4-4, 16 g/ha postemergence), 48%; in the experiment on Mutant W4-4 (W4-4, 32 g/ha postemergence), 65%; with mutant W20 (W20, 4 g/ha postemergence), 90%; with mutant W20 (W20, 16 g/ha postemergence), 93%; in the experiment with mutant W20 (W20, 32 g/ha postemergence) it was 95%. Besides, the mean % injury is recorded as 90% in the experiment with Williams 82 (WM82, 4 g/ha postemergence); 95% with Williams 82 (WM82, 16 g/ha postemergence); 95% in the experiment on Williams 82 (WM82, 32 g/ha postemergence).
